Source: US10828350B1, “Topical and orally administered protease inhibitors and bacterial vectors for the treatment of disorders and methods of treatment” (priority 2014, dated 2020)

B1: α-2-macroglobulin (protein, UniProt P01023 24-1474, looked up)
Alpha-2-macroglobulin: SVSGKPQYMVLVPSLLHTETTEKGCVLLSYLNETVTVSASLESVRGNRSLFTDLEAENDVLHCVAFAVPKSSSNEEVMFLTVQVKGPTQEFKKRTTVMVKNEDSLVFVQTDKSIYKPGQTVKFRVVSMDENFHPLNELIPLVYIQDPKGNRIAQWQSFQLEGGLKQFSFPLSSEPFQGSYKVVVQKKSGGRTEHPFTVEEFVLPKFEVQVTVPKIITILEEEMNVSVCGLYTYGKPVPGHVTVSICRKYSDASDCHGEDSQAFCEKFSGQLNSHGCFYQQVKTKVFQLKRKEYEMKLHTEAQIQEEGTVVELTGRQSSEITRTITKLSFVKVDSHFRQGIPFFGQVRLVDGKGVPIPNKVIFIRGNEANYYSNATTDEHGLVQFSINTTNVMGTSLTVRVNYKDRSPCYGYQWVSEEHEEAHHTAYLVFSPSKSFVHLEPMSHELPCGHTQTVQAHYILNGGTLLGLKKLSFYYLIMAKGGIVRTGTHGLLVKQEDMKGHFSISIPVKSDIAPVARLLIYAVLPTGDVIGDSAKYDVENCLANKVDLSFSPSQSLPASHAHLRVTAAPQSVCALRAVDQSVLLMKPDAELSASSVYNLLPEKDLTGFPGPLNDQDNEDCINRHNVYINGITYTPVSSTNEKDMYSFLEDMGLKAFTNSKIRKPKMCPQLQQYEMHGPEGLRVGFYESDVMGRGHARLVHVEEPHTETVRKYFPETWIWDLVVVNSAGVAEVGVTVPDTITEWKAGAFCLSEDAGLGISSTASLRAFQPFFVELTMPYSVIRGEAFTLKATVLNYLPKCIRVSVQLEASPAFLAVPVEKEQAPHCICANGRQTVSWAVTPKSLGNVNFTVSAEALESQELCGTEVPSVPEHGRKDTVIKPLLVEPEGLEKETTFNSLLCPSGGEVSEELSLKLPPNVVEESARASVSVLGDILGSAMQNTQNLLQMPYGCGEQNMVLFAPNIYVLDYLNETQQLTPEIKSKAIGYLNTGYQRQLNYKHYDGSYSTFGERYGRNQGNTWLTAFVLKTFAQARAYIFIDEAHITQALIWLSQRQKDNGCFRSSGSLLNNAIKGGVEDEVTLSAYITIALLEIPLTVTHPVVRNALFCLESAWKTAQEGDHGSHVYTKALLAYAFALAGNQDKRKEVLKSLNEEAVKKDNSVHWERPQKPKAPVGHFYEPQAPSAEVEMTSYVLLAYLTAQPAPTSEDLTSATNIVKWITKQQNAQGGFSSTQDTVVALHALSKYGAATFTRTGKAAQVTIQSSGTFSSKFQVDNNNRLLLQQVSLPELPGEYSMKVTGEGCVYLQTSLKYNILPEKEEFPFALGVQTLPQTCDEPKAHTSFQISLSVSYTGSRSASNMAIVDVKMVSGFIPLKPTVKMLERSNHVSRTEVSSNHVLIYLDKVSNQTLSLFFTVLQDVPVRDLKPAIVKVYDYYETDEFAIAEYNAPCSKDLGNA

Test system: trypsin
Experiment: Petri plate assay detecting zones of protease protection by protease inhibitors or bacterial strains after flooding with trypsin
Type: biochemical
Details: for relative size of zone of inhibition (diffusion zone): casein plates, to a lesser degree gelatin plates, compared among leupeptin, aprotinin and α-2-macroglobulin
Source text: Because the protocol is destructive to the plate assayed, a duplicate or replica plate is generated and retained for identification and further analysis of the strains using methods known to those skilled in the arts. The initial step is the exposure of the protease detection plate to a protease inhibitor or bacterial growth. Either commercially available protease inhibitor peptides or growth of bacterial strains on the protease detection plates can be detected. […] The bacterial strains Photorabdus (Xenorhabdus) luminescens strain Hm primary and secondary forms where the secondary and not the primary form is known to secrete a protease inhibitor and the other strains are negative controls (Wee et al. 2000, A new broad-spectrum protease inhibitor from the entomopathogenic bacterium Photorhabdus luminescens. Microbiology 146: 3141-3147), Citrobacter freundii (ATCC #33128), Staphylococcus aureus, S. epidermidis and Enterococcusfaecalis are allowed to grow two days at 30° C. in air.
The base media can be any microbiological media designed to facilitate the growth of cultivable microorganism; different media can be used to favor different strains as appropriate (Kreig, 1981, Chapter 8, Enrichment and Isolation, p. 112-142 in Manual of Methods for General Bacteriology, Gerhardt et al., eds, American Society for Microbiology, Washington, D.C.). Variations on the type of protease being targeted, the protease substrate and cognate inhibitors are shown in Table 1 and used as a guide in the modification of media. A casein base media based on that of Vijayaraghavan and Vincent (2013, A simple method for the detection of protease activity on agar plates using bromochresol green dye, J. Biochem. Tech. 4: 628-630), which contained 5 grams of peptone, 1.5 grams of yeast extract, 1.5 grams of sodium chloride per liter with, except that the casein 0.5% is used (instead of 1.0%) and dissolved as described by Montville (1983, Dual-substrate plate diffusion assay for proteases, Appl Environ Microbiol 45: 200-204) using 0.02 N NaOH. When bromochresol green (BCG) is added directly to the media, 0.0015% is used. BCG preincorporated into the media as well as post incubation addition of a BCG dye reagent containing 0.028% BCG dissolved in 0.56% (w/v) succinic acid, 0.1% (w/v) NaOH (Vijayaraghavan and Vincent; 2013) with 0.6% Brij-35 and then acidified to pH 4.2 can also be used following exposure to a protease inhibitor or bacterial growth and subsequent exposure to a protease. After staining and then destaining in water the by completely removing the agar from the lower plastic, the plates are observed for the presence and absence of protein. Ponseau S staining by flooding the plate with 5 ml of the stain containing 0.1% Ponseau S (PS; Sigma, St. Louis, Mo.) and 5% acetic acid in water for 1-2 hrs and then marking the agar with a 23 ga syringe needle dipped in India ink at a corresponding register marked on the plastic petri plate, removing the agar from the plate and destaining overnight in water before observing them and is highly sensitive.
A gelatin based media (Medina and Baresi 2007, Rapid identification of gelatin and casein hydrolysis using TCA, J Microbiol Meth 69: 391-393) which uses 40 grams per liter of tryptic soy agar powder without glucose (Becton Dickinson, Sparks, Md.) modified to contain 8 g of gelatin (instead of 16 g) per liter may be preferable for certain organisms depending upon their growth requirements and is used as is appropriate. Approximately 5 ml of 20% trichloroacetic acid (TCA; Thermo Fisher, Waltham, Mass.) was used for protein precipitation per petri plate. This media can also be combined with preincorporated BCG, or post-incubation BCG dye reagent or Ponseau S, each as described above for the casein plates. […]

[1] = BCG-containing plates further stained with PS, 0.625 mg/ml trypsin for casein, 0.0625 mg/ml for gelatin (FIG. 2B)
[2] = casein plates with preincorporated BCG, before PS staining (FIG. 2A)

Row | Molecule | visualization of zone of protease protection [1] | relative size of zone of inhibition (diffusion zone) | visualization of zone of protease protection [2] | diffusion distance of inhibitor on plate (casein BCG plate, PS stained (FIGS. 5A and 5B))
1 | CC(=O)N[C@@H](CC(C)C)C(=O)N[C@@H](CC(C)C)C(=O)N[C@H](C=O)CCCNC(=N)N [Leupeptin, leupeptin] | able to visualize | notably larger | – | –
2 | CC(C)C[C@H](NC(=O)[C@@H](O)[C@H](N)Cc1ccccc1)C(=O)O [bestatin] | no staining | – | – | –
3 | aprotinin [Aprotonin] | able to visualize | – | faintly visualize | –
4 | B1 | able to visualize | smallest diffusion zone | faintly visualize | diffused only a short distance
